The record followed here is US20240277799A1, “Translational Activators, Including Methods of Discovery and Uses Thereof” (The Board of Trustees of the Leland Stanford Junior …, priority 2023, published 2024).

Each structure is given as a SMILES string.

Data set [1] concerns A459 cells transfected with a control siRNA (siCTRL). In words: global protein synthesis in control cells (siCTRL). Type of data set: cell-based. As to conditions: siCTRL cells with normal global synthesis; FIGS. 4A-4D. How it is done:
FIGS. 2A-2D provide data and a schematic of an example of a screening method to discover and/or identify translational activators. In this example, cells with decreased global protein synthesis via small interfering RNA (siRNA) knockdown of an RP are cultured within a multi-well format. Each well of cultured cells is contacted with a compound and then examined for global protein synthesis. Compounds that increased global protein synthesis were considered a putative translational activator for further examination. To begin, cells are prepared (FIG. 2B). In some embodiments, cells having decreased global protein translation are cultured. It should be understood that any cells can be assessed and it is not required that the cells have decreased global protein translation, but cells with decreased global protein translation may improve identification of translational activators. […] If using a pooling strategy, hits can be further assessed to delineate which compound (or combination of compounds) yield the beneficial effect. Compounds can be assessed at a single concentration, or multiple concentrations. […] For high-throughput assessments, multiple cell cultures (e.g., multiple wells) can be assessed concurrently, each cell culture provided with the same conditions except for the compound (or concentration thereof) utilized to contact the cells of the culture. […]

Data set [2] relates to A459 cells transfected with siRNA targeting RPL11 (siRPL11). As to the kind of experiment: global protein synthesis in cells with insufficient global protein synthesis (siRPL11). Type of data set: cell-based. As to conditions: FIGS. 4A-4D; for concentrations that increase protein synthesis, fold lower as compared to erythromycin: siRPL11 cells. How it is done: FIGS. 2A-2D provide data and a schematic of an example of a screening method to discover and/or identify translational activators. In this example, cells with decreased global protein synthesis via small interfering RNA (siRNA) knockdown of an RP are cultured within a multi-well format. Each well of cultured cells is contacted with a compound and then examined for global protein synthesis. Compounds that increased global protein synthesis were considered a putative translational activator for further examination.
To begin, cells are prepared (FIG. 2B). In some embodiments, cells having decreased global protein translation are cultured. It should be understood that any cells can be assessed and it is not required that the cells have decreased global protein translation, but cells with decreased global protein translation may improve identification of translational activators. In some embodiments, the cells are known to have a wild-type p53 sequence, which can reduce cofounding factors. Culturing of cells can be in plates, tubes, flasks, and/or any other appropriate container. High throughput methods can use multi-well plates (e.g., 96-well, 384-well, 1536-well, etc.) or any other means for dividing a cell culture into multiple populations.
In some embodiments, the cells that are cultured are manipulated to decrease global translation. In some embodiments, cells are manipulated by reducing expression of or inhibiting functionality of a ribosomal subunit. Examples of ribosomal subunits that can be targeted include (but are not limited to) RPL5, RPL11, RPS6, and RPS19, each of which are involved in various ribosomopathies. One method to reduce ribosomal subunit expression is knockdown via antisense and/or RNA interference (RNAi) technology. […] The example method within FIG. 2B utilizes reverse transfection in which double-stranded siRNA complexes are preformed and transfected into the cells, which are then cultured.
Upon preparing the cells, the cells are then treated with compounds (FIG. 2C). In some embodiments, cultured cells are contacted with a compound to assess their effect on global protein translation. […] If using a pooling strategy, hits can be further assessed to delineate which compound (or combination of compounds) yield the beneficial effect. Compounds can be assessed at a single concentration, or multiple concentrations. […] For high-throughput assessments, multiple cell cultures (e.g., multiple wells) can be assessed concurrently, each cell culture provided with the same conditions except for the compound (or concentration thereof) utilized to contact the cells of the culture.
After a period of incubating the cell culture with a compound, global protein production can be assessed (FIG. 2D). Any readout for measuring protein synthesis can be utilized. […]

Data set [3] can be described thus: cellular toxicity, relative total cell count against concentration. As to conditions: at concentrations that improve protein synthesis; FIG. 5.
Text: Specifically, FIG. 5 illustrates relative total cell count is plotted against the concentration provided.

`CC[C@H]1OC(=O)[C@H](C)[C@@H](O[C@H]2C[C@@](C)(OC)[C@@H](O)[C@H](C)O2)[C@H](C)[C@@H](O[C@@H]2O[C@H](C)C[C@H](N(C)C)[C@H]2O)[C@](C)(O)C[C@@H](C)CN(C)[C@H](C)[C@@H](O)[C@]1(C)O` [azithromycin]: the “increase of protein synthesis in control cells” value in data set [1] was “increased protein synthesis in control cells”. Besides, in data set [2], the “concentrations that increase protein synthesis, fold lower as compared to erythromycin” value is 10 fold.

For the compound `CC[C@H]1OC(=O)[C@H](C)[C@@H](O[C@H]2C[C@@](C)(OC)[C@@H](O)[C@H](C)O2)[C@H](C)[C@@H](O[C@@H]2O[C@H](C)C[C@H](N(C)C)[C@H]2O)[C@](C)(O)C[C@@H](C)C(=O)[C@H](C)[C@@H](O)[C@]1(C)O` [erythromycin], in data set [2] (siRPL11 cells having insufficient global protein synthesis), the “ability to increase protein synthesis” value is recorded as “increased protein synthesis at high concentrations”.

`CC[C@H]1OC(=O)[C@@](C)(F)C(=O)[C@H](C)[C@@H](O[C@@H]2O[C@H](C)C[C@H](N(C)C)[C@H]2O)[C@](C)(OC)C[C@@H](C)C(=O)[C@H](C)[C@H]2N(CCCCn3cc(-c4cccc(N)c4)nn3)C(=O)O[C@]12C` [solithromycin]: the “concentrations that increase protein synthesis, fold lower as compared to erythromycin” value in data set [2] is given as 10 fold. Besides, in data set [3], the “cellular toxicity (relative total cell count)” value is listed as “little to no toxicity”.

In the case of `CC[C@H]1OC(=O)[C@H](C)C(=O)[C@H](C)[C@@H](O[C@@H]2O[C@H](C)C[C@H](N(C)C)[C@H]2O)[C@](C)(OC)C[C@@H](C)C(=O)[C@H](C)[C@H]2N(CCCCn3cnc(-c4cccnc4)c3)C(=O)O[C@]12C` [telithromycin], the “concentrations that increase protein synthesis, fold lower as compared to erythromycin” value in data set [2] worked out at 10 fold.
